Laboratory results published in patent publication US20260083727A1, “PHARMACEUTICAL FORMULATIONS OF NINTEDANIB FOR INTRAOCULAR USE” (Boehringer Ingelheim International GmbH, priority 2022, published 2026).

Assay: Water solubility
Type: physicochemical
Conditions: in words

## COC(=O)c1ccc2c(c1)NC(=O)/C2=C(\Nc1ccc(N(C)C(=O)CN2CCN(C)CC2)cc1)c1ccccc1 [nintedanib (free base)]
  solubility in water: very poor
